# Test results from patent US20120329761A1, “USE OF TIGECYCLINE FOR TREATMENT OF CANCER” (UNIVERSITY HEALTH NETWORK, priority 2010, published 2012).
# Columns and labels:
# [1] = test system: OCI-AML2 human leukemia cells; format: in vivo, SCID mice
# Experimental: FIG. 3. Tigecycline has anti-leukemia activity in vivo. (A, B) Human leukemia (OCI-AML2) were injected subcutaneously into the flank of SCID mice. Seven days after injection, once tumors were palpable, mice were treated with tigecycline (50 mg/kg or 100 mg/kg twice daily by i.p. injection) or vehicle control (n=10 per group). Fourteen days after injection of cells, mice were sacrificed, tumors excised and the volume and mass of the tumors were measured. The tumor mass and the mean volume+SD are shown. Differences in tumor volume and mass were analyzed by an unpaired t-test: * p<0.001. (C) Tumours from two control mice, and three tigecycline-treated mice were excised after 5 days of treatment and total proteins were extracted and analyzed by western blotting for Cox-1, Cox-2, Cox-4, and tubulin. (D) Primary cells from three AML patients were injected intra-femorally into the right femur of female sub-lethally irradiated NOD/SCID mice. Three weeks after injection mice were treated with tigecycline (100 mg/kg by i.p. injection daily) or vehicle control (n=10 per group) for three weeks. Following treatment, human leukemia cell engraftment in the injected right femur was measured by FACS analysis for human CD45^+CD19^−CD33^+ cells. Data represent mean±SD of engrafted human cells. Cells from one patient experiment were used to assess secondary engraftment in a second generation of NOD/SCID mice. Equal numbers of viable leukemia cells from bone marrow of control and tigecycline treated mice were injected into irradiated NOD/SCID mice, which were not treated with tigecycline. Six weeks later, human leukemia cell engraftment in the injected right femur was measured by FACS analysis for human CD45^+CD19^−CD33^+ cells. (* p<0.005, Student's t-test).
# OCI-AML2 human leukemia cells (1×10^6) were injected subcutaneously into the flanks of SCID mice (Ontario Cancer Institute, Toronto, ON). Seven days after injection, once tumours were palpable, mice were treated with tigecycline twice daily (50 mg/kg or 100 mg/kg by i.p. injection) or vehicle control (n=10 per group) for 14 days. Tumor volume (tumor length×width^2×0.5236) was measured three times a week using calipers. Twenty-one days after injection of cells, mice were sacrificed, tumors excised and the volume and mass of the tumors were measured.
# Given the effects of tigecycline as a potential anti-leukemia agent, tigecycline in mouse models of leukemia was evaluated. To evaluate the anti-tumor efficacy of tigecycline in vivo, human OCI-AML2 leukemia cells were injected into the flank of SCID mice. […] Tumor volume and mass were measured over time (FIGS. 3A, B). […]
# [2] = test system: Complex I, II and IV; experiment: Respiratory chain complex enzyme activity relative to citrate synthase; format: cell-based, human; conditions: TEX cells, 2.5 μM and 5 μM, 72 hours
# Experimental: (§1) FIG. 4. Tigecycline decreases mitochondrial Cox-1 protein levels in TEX cells. (A) Cells from TEX, OCI-AML2 and two primary AML patients were treated with increasing concentrations (2.5 μM and 5 μM) of tigecycline for 36 and 48 hours of tigecycline. Total proteins were extracted and analyzed by western blotting for Cox-1, Cox-2, Cox-4, grp78, XIAP, actin and tubulin. (B) TEX and AML patient cells were treated with increasing concentrations (2.5 μM and 5 μM) of tigecycline. Cox-1, Cox-2, and Cox-4 mRNA expression relative 18S was determined by quantitative RT-PCR. Data is shown as mean±SD. (C) TEX cells were treated with increasing concentrations of tigecycline and chloramphenicol (CAP) for 72 hours. Complex I, II and IV enzyme activity relative to citrate synthase activity was determined as described in materials and methods. (D) Cells from TEX, primary AML patients, and normal donors were treated with increasing concentrations of tigecycline. Mitochondrial membrane potential (Δψ) was determined by staining cells with JC-1 dye, and flow cytometry analysis (Red/Green ratio). Reactive oxygen species generation (ROS) was determined by staining with h2-DCFDA and Dihydroethidium (DHE).
# The effect of tigecycline treatment on enzyme activity of the respiratory chain complexes relative to the mitochondrial non-respiratory chain enzyme citrate synthase was examined. TEX leukemia cells were treated with tigecycline for […] and then respiratory chain enzyme relative to citrate synthase activity was analyzed. Equivalent tigecycline concentrations (2.5 μM and 5 μM) decreased enzyme activities of Complexes I and IV relative to citrate synthase, while complex II activity was less affected (FIG. 4C).
# [3] = test system: TEX cells; experiment: ROS generation, DCF-DA and DHE staining; format: cell-based, human; conditions: time-points up to 24 hours
# Experimental: as §1, with “Tigecycline decreases mitochondrial Cox-1 protein levels in TEX cells.” left out
# A byproduct of the mitochondrial enzyme activities of the electron transport chain is the generation of reactive oxygen species (ROS). […] Therefore, the role of tigecycline on ROS generation in leukemia cells by analyzing hydrogen peroxide ions (H2O2) using a dichlorofluorescein dye (DCF-DA), and superoxide anions using dihydroethidium (DHE) was examined.
# [4] = test system: bacterial protein synthesis; conditions: cited from earlier work
# [5] = 50 mg/kg or 100 mg/kg twice daily i.p. for 14 days, p<0.001
smiles,measurement,setting,value
CN(C)c1cc(NC(=O)CNC(C)(C)C)c(O)c2c1C[C@H]1C[C@H]3[C@H](N(C)C)C(O)=C(C(N)=O)C(=O)[C@@]3(O)C(O)=C1C2=O [tigecycline],expression of cytochrome C oxidase subunits in tumours,"[1]; 50 mg/kg bid for 5 days, western blotting",preferential decreased expression of mitochondrially translated subunits Cox-1 and Cox-2
same,decrease in tumor mass vs vehicle control,[1]; [5],up to 70%
same,decrease in tumor volume vs vehicle control,[1]; [5],up to 70%
same,toxicity in xenograft mice,"[1]; mouse, in vivo",No evidence of toxicity
same,Complex I enzyme activity relative to citrate synthase,[2],decreased
same,Complex II enzyme activity relative to citrate synthase,[2],less affected
same,Complex IV enzyme activity relative to citrate synthase,[2],decreased
same,ROS generation,[3],no observed increase in ROS generation
same,"inhibition of bacterial protein synthesis, fold greater than minocycline",[4]; relative to minocycline,3 fold
same,"inhibition of bacterial protein synthesis, fold greater than tetracycline",[4]; relative to tetracycline,20 fold
